Test results reported in PubChem BioAssay AID248 (DTP/NCI, 2004).
“And” between values parts separate entries of the source, which are not always exact repeats. Equal values may be shown once. Toxic doses and inconclusive results are not listed.

System: L1210 leukemia ip in BDF1 mice, survival T/C
Experiment: NCI In Vivo Anticancer Drug Screen. Data for tumor model L1210 Leukemia (intraperitoneal) in B6D2F1 (BDF1) mice
Settings: endpoint: mean survival time, higher = longer survival
Method in brief: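 In this screen, tumor-bearing mice given compound are compared to those given vehicle, and their survival values are reported as a treated-to-control quotient.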

[1] = dose: 3.13 mg/kg/injection, schedule: Q01DX009 (ip), vehicle: saline
[2] = dose: 6.25 mg/kg/injection, schedule: Q01DX009 (ip), vehicle: saline
[3] = dose: 25.0 mg/kg/injection, schedule: Q01DX009 (ip), vehicle: other
[4] = dose: 100.0 mg/kg/injection, schedule: Q04DX003 (ip), vehicle: Klucel (hydroxypropylcellulose) (HPC)
[5] = dose: 50.0 mg/kg/injection, schedule: Q01DX009 (ip), vehicle: saline with Tween-80
[6] = dose: 100.0 mg/kg/injection, schedule: Q01DX009 (ip), vehicle: saline with Tween-80
[7] = dose: 100.0 mg/kg/injection, schedule: Q04DX003 (ip), vehicle: saline with Tween-80
[8] = dose: 200.0 mg/kg/injection, schedule: Q01DX009 (ip), vehicle: saline with Tween-80
[9] = dose: 200.0 mg/kg/injection, schedule: Q04DX003 (ip), vehicle: saline with Tween-80
[10] = dose: 400.0 mg/kg/injection, schedule: Q04DX003 (ip), vehicle: saline with Tween-80
[11] = dose: 100.0 mg/kg/injection, schedule: Q04DX003 (ip), vehicle: saline
[12] = dose: 200.0 mg/kg/injection, schedule: Q04DX003 (ip), vehicle: saline
[13] = dose: 400.0 mg/kg/injection, schedule: Q04DX003 (ip), vehicle: saline
[14] = dose: 50.0 mg/kg/injection, schedule: Q04DX003 (ip), vehicle: saline with Tween-80

## NC(CSC(c1ccccc1)(c1ccccc1)c1ccc2ccccc2c1)C(=O)O (stereo not given)
dose: 0.74 mg/kg/injection, schedule: Q01DX009 (ip), vehicle: saline
  T/C: 124 % of control
[1]
  T/C: 159 % of control
[2]
  T/C: 187 % of control
dose: 6.3 mg/kg/injection, schedule: Q01DX009 (ip), vehicle: other
  T/C: 166 % of control
dose: 12.5 mg/kg/injection, schedule: Q01DX009 (ip), vehicle: saline
  T/C: 108 % of control
[3]
  T/C: 94 % of control
dose: 25.0 mg/kg/injection, schedule: Q01DX009 (ip), vehicle: saline
  T/C: 225 % of control
dose: 50.0 mg/kg/injection, schedule: Q01DX009 (ip), vehicle: saline
  T/C: 103 % of control

## CC(=O)Nc1ccc(Cl)c(Cl)c1
[4]
  T/C: 107 % of control
dose: 100.0 mg/kg/injection, schedule: Q04DX003 (ip), vehicle: other
  T/C: 101 % of control
dose: 200.0 mg/kg/injection, schedule: Q04DX003 (ip), vehicle: Klucel (hydroxypropylcellulose) (HPC)
  T/C: 114 % of control
dose: 200.0 mg/kg/injection, schedule: Q04DX003 (ip), vehicle: other
  T/C: 98 % of control
dose: 400.0 mg/kg/injection, schedule: Q04DX003 (ip), vehicle: Klucel (hydroxypropylcellulose) (HPC)
  T/C: 87 % of control
dose: 400.0 mg/kg/injection, schedule: Q04DX003 (ip), vehicle: other
  T/C: 101 % of control

## C1=C(c2ccccc2)c2ccccc2CC1
dose: 50.0 mg/kg/injection, schedule: Q01DX001 (ip), vehicle: saline
  T/C: 96 % of control
dose: 100.0 mg/kg/injection, schedule: Q01DX001 (ip), vehicle: saline
  T/C: 102 % of control
dose: 200.0 mg/kg/injection, schedule: Q01DX001 (ip), vehicle: saline
  T/C: 106 % of control

## CCCCNC(=O)Nc1ccc(N(C)C)cc1
[5]
  T/C: 95 % of control
[6]
  T/C: 92 % of control
[7]
  T/C: 102 % of control
[8]
  T/C: 90 % of control
[9]
  T/C: 100 % of control
[10]
  T/C: 109 % of control

## Clc1ccc(N/N=C(\Oc2ccccc2)c2ccccc2)cc1
[7]
  T/C: 104 % of control
[10]
  T/C: 98 % of control

## O=[N+]([O-])C12CCCCC1([N+](=O)[O-])CCCC2 (stereo not given)
[11]
  T/C: 103 % of control
[12]
  T/C: 92 % of control
[13]
  T/C: 108 % of control

## Cc1ccccc1N=C(N)Nc1ccccc1C
dose: 2.5 mg/kg/injection, schedule: Q01DX009 (ip), vehicle: saline with Tween-80
  T/C: 103 % of control
dose: 5.0 mg/kg/injection, schedule: Q01DX001 (ip), vehicle: carboxymethylcellulose (CMC)
  T/C: 108 % of control
dose: 5.0 mg/kg/injection, schedule: Q01DX009 (ip), vehicle: saline with Tween-80
  T/C: 97 % of control
dose: 6.25 mg/kg/injection, schedule: Q01DX009 (ip), vehicle: other
  T/C: 95 % of control
dose: 6.25 mg/kg/injection, schedule: Q04DX003 (ip), vehicle: other
  T/C: 96 % of control
dose: 10.0 mg/kg/injection, schedule: Q01DX001 (ip), vehicle: carboxymethylcellulose (CMC)
  T/C: 114 % of control
dose: 10.0 mg/kg/injection, schedule: Q01DX009 (ip), vehicle: saline with Tween-80
  T/C: 97 % of control
dose: 12.5 mg/kg/injection, schedule: Q01DX001 (ip), vehicle: other
  T/C: 96 % of control
dose: 12.5 mg/kg/injection, schedule: Q01DX009 (ip), vehicle: other
  T/C: 95 % of control
dose: 12.5 mg/kg/injection, schedule: Q04DX003 (ip), vehicle: other
  T/C: 93 % of control
dose: 20.0 mg/kg/injection, schedule: Q01DX001 (ip), vehicle: carboxymethylcellulose (CMC)
  T/C: 117 % of control
dose: 25.0 mg/kg/injection, schedule: Q01DX001 (ip), vehicle: other
  T/C: 96 % of control
[3]
  T/C: 94 % of control
dose: 25.0 mg/kg/injection, schedule: Q04DX003 (ip), vehicle: other
  T/C: 100 % of control

## CC(C)C1(C)NC(=O)NC1=O (stereo not given)
[11]
  T/C: 110 % of control
[12]
  T/C: 105 % of control
[13]
  T/C: 100 % of control

## CCOCc1nc2nc(Cl)c(Cl)nc2[nH]1
dose: 25.0 mg/kg/injection, schedule: Q04DX003 (ip), vehicle: saline with Tween-80
  T/C: 97 % of control
[5]
  T/C: 106 % of control
[14]
  T/C: 97 % of control
[6]
  T/C: 116 % of control
[7]
  T/C: 97 % of control
[8]
  T/C: 87 % of control
[9]
  T/C: 95 % of control and 97 % of control

## Nc1ncnc2c1ncn2C1OC(C2CC2)C(O)C1O (stereo not given)
dose: 25.0 mg/kg/injection, schedule: Q01DX005 (ip), vehicle: saline
  T/C: 111 % of control
dose: 50.0 mg/kg/injection, schedule: Q01DX005 (ip), vehicle: saline
  T/C: 104 % of control
dose: 100.0 mg/kg/injection, schedule: Q01DX005 (ip), vehicle: saline
  T/C: 98 % of control
dose: 200.0 mg/kg/injection, schedule: Q01DX005 (ip), vehicle: saline
  T/C: 94 % of control

## CC(C)CCCC(C)C1CCC2C3CC(=O)OC4CC(Br)CCC4(C)C3CCC12C (stereo not given)
[7]
  T/C: 101 % of control
[9]
  T/C: 101 % of control
[10]
  T/C: 102 % of control

## CC(=O)OCc1ccc2ccccc2c1
[7]
  T/C: 101 % of control
[9]
  T/C: 106 % of control
[10]
  T/C: 101 % of control

## CCOC(=O)n1cnc2ncnc(SC)c21
dose: 25.0 mg/kg/injection, schedule: Q01DX015 (ip), vehicle: saline
  T/C: 102 % of control
dose: 50.0 mg/kg/injection, schedule: Q01DX001 (ip), vehicle: carboxymethylcellulose (CMC)
  T/C: 94 % of control and 106 % of control
dose: 50.0 mg/kg/injection, schedule: Q01DX015 (ip), vehicle: saline
  T/C: 96 % of control
dose: 100.0 mg/kg/injection, schedule: Q01DX001 (ip), vehicle: carboxymethylcellulose (CMC)
  T/C: 109 % of control and 114 % of control
dose: 100.0 mg/kg/injection, schedule: Q01DX015 (ip), vehicle: saline
  T/C: 103 % of control
dose: 200.0 mg/kg/injection, schedule: Q01DX001 (ip), vehicle: carboxymethylcellulose (CMC)
  T/C: 88 % of control
dose: 200.0 mg/kg/injection, schedule: Q01DX015 (ip), vehicle: saline
  T/C: 91 % of control
dose: 400.0 mg/kg/injection, schedule: Q01DX001 (ip), vehicle: carboxymethylcellulose (CMC)
  T/C: 109 % of control

## NC(=O)c1n[nH]nc1N1CC[N+](CCCl)=N1
dose: 44.0 mg/kg/injection, schedule: Q01DX009 (ip), vehicle: saline with Tween-80
  T/C: 110 % of control
[5]
  T/C: 111 % of control
[14]
  T/C: 105 % of control
dose: 67.0 mg/kg/injection, schedule: Q01DX009 (ip), vehicle: saline with Tween-80
  T/C: 107 % of control
dose: 100.0 mg/kg/injection, schedule: Q01DX009 (ip), vehicle: saline
  T/C: 96 % of control
[7]
  T/C: 97 % of control and 113 % of control
[11]
  T/C: 107 % of control
dose: 150.0 mg/kg/injection, schedule: Q01DX009 (ip), vehicle: saline with Tween-80
  T/C: 112 % of control
dose: 200.0 mg/kg/injection, schedule: Q01DX009 (ip), vehicle: saline
  T/C: 91 % of control
[9]
  T/C: 118 % of control and 121 % of control
[12]
  T/C: 105 % of control
dose: 400.0 mg/kg/injection, schedule: Q01DX009 (ip), vehicle: saline
  T/C: 95 % of control
[10]
  T/C: 113 % of control
[13]
  T/C: 94 % of control

## O=[N+]([O-])/C=C/c1cc2ccccc2[nH]1
dose: 100.0 mg/kg/injection, schedule: Q01DX009 (ip), vehicle: other
  T/C: 96 % of control
dose: 200.0 mg/kg/injection, schedule: Q01DX009 (ip), vehicle: other
  T/C: 113 % of control
dose: 400.0 mg/kg/injection, schedule: Q01DX009 (ip), vehicle: other
  T/C: 107 % of control

## CCCCn1cncc1C
dose: 1.56 mg/kg/injection, schedule: Q01DX009 (ip), vehicle: saline
  T/C: 88 % of control
[1]
  T/C: 98 % of control
[2]
  T/C: 98 % of control and 104 % of control

## CC(C(=O)c1ccccc1)C(Cl)c1ccccc1 (stereo not given)
[6]
  T/C: 102 % of control
[7]
  T/C: 104 % of control
[8]
  T/C: 106 % of control
[9]
  T/C: 107 % of control
dose: 400.0 mg/kg/injection, schedule: Q01DX009 (ip), vehicle: saline with Tween-80
  T/C: 102 % of control
[10]
  T/C: 104 % of control

## CCCCCC(=O)c1c(O)cc(=O)oc1C
dose: 3.12 mg/kg/injection, schedule: Q01DX009 (ip), vehicle: Klucel (hydroxypropylcellulose) (HPC)
  T/C: 95 % of control
dose: 6.25 mg/kg/injection, schedule: Q01DX009 (ip), vehicle: Klucel (hydroxypropylcellulose) (HPC)
  T/C: 98 % of control
dose: 12.5 mg/kg/injection, schedule: Q01DX009 (ip), vehicle: Klucel (hydroxypropylcellulose) (HPC)
  T/C: 103 % of control
[4]
  T/C: 90 % of control
